The results in this text go back to patent US12162872B2, “Cycloalkylurea derivative” (Sumitomo Pharma Co., Ltd., priority 2019, dated 2024).

The target of this experiment is T1, Human orexin receptor type 2 (Homo sapiens, UniProt O43614).
T1 construct: expressed in transfected cells; host or cells: CHO cells (transient expression)
T1 sequence (O43614 1-444): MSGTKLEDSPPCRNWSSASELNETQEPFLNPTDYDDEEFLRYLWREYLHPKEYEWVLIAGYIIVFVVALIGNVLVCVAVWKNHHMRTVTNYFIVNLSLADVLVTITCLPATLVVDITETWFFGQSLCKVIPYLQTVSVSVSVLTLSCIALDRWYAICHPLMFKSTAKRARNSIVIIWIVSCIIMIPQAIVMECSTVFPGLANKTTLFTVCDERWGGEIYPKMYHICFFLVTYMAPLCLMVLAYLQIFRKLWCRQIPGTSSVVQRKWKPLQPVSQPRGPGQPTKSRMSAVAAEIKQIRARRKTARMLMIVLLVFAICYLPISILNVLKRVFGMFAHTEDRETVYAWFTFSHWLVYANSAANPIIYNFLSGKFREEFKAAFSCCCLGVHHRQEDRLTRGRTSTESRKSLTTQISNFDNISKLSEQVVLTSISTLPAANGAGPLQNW
The experiment in a line: Test 2: Evaluation of agonist activity for orexin receptor type 2 (aequorin luminescence, intracellular calcium mobilization in CHO cells). The experiment is classed as cell-based. Particulars: relative percentage of luminescence for the luminescence (100%) of Orexin A (100 pM); CHO cells transiently expressing human orexin receptor type 2 and apoaequorin; Orexin A Lot. 671009. How it is done:
Test 2: Evaluation of Agonist Activity for Orexin Receptor Type 2
Human orexin receptor type 2 and apoaequorin were transiently expressed in CHO cells, and the agonist activity was evaluated based on intracellular calcium mobilization with ligand stimulation. The CHO cells transiently-expressed human orexin receptor type 2 and apoaequorin were seeded on a 384-well plate by 2,000 cells/well, and then incubated for 16-22 hours. After the plate was returned to room temperature, Coelenterazine hcp (final concentration: 1 μM) was added to the plate, and the plate was allowed to stand at room temperature for 2 hours. And then, Orexin A (PEPTIDE INSTITUTE, INC., Lot. 671009) or each test compound was added to the plate, and the luminescence of the cells was measured with FDSS7000 (Hamamatsu Photonics K.K.), wherein Orexin A and each test compound were dissolved in DMSO (final concentration: 0.1%), and diluted with a buffer (Hanks, 20 mM HEPES, 0.1% BSA). The agonist activity of each test compound for orexin receptor type 2 was calculated as relative percentage of luminescence for the luminescence (100%) of Orexin A (100 pM).

Take `CC(C)N1CCN([C@H]2CCC[C@@H](F)[C@@H]2NC(=O)N2CCC(C)(c3noc(C4CC4)n3)CC2)CC1` (racemic) [Example 139, rac-4-(5-cyclopropyl-1,2,4-oxadiazol-3-yl)-N-{(1R,2R,6S)-2-fluoro-6-[4-(propan-2-yl)piperazin-1-yl]cyclohexyl}-4-methylpiperidine-1-carboxamide]: the “agonist activity (%)” value amounted to 351%.
In the case of `CC(C)N1CCN([C@H]2CCCCC[C@@H]2NC(=O)N2CCC(C)(c3noc(C4CC4)n3)CC2)CC1` (racemic) [Example 151, rac-4-(5-cyclopropyl-1,2,4-oxadiazol-3-yl)-4-methyl-N-{(1S,2S)-2-[4-(propan-2-yl)piperazin-1-yl]cycloheptyl}piperidine-1-carboxamide], the “agonist activity (%)” value came to 368%.
On to `CC(C)N1CCN([C@@H]2CCCC(F)(F)[C@H]2NC(=O)N2CCC(C)(c3noc([C@H]4C[C@H]4F)n3)CC2)CC1` [Example 82, N-{(1S,6R)-2,2-difluoro-6-[4-(propan-2-yl)piperazin-1-yl]cyclohexyl}-4-{5-[(1R,2R)-2-fluorocyclopropyl]-1,2,4-oxadiazol-3-yl}-4-methylpiperidine-1-carboxamide], for which the “agonist activity (%)” value was found to be 69%.
As for `CC(C)N1CCC(O[C@H]2CCCC(F)(F)[C@@H]2NC(=O)N2CCC(C)(c3noc([C@@H]4C[C@@H]4F)n3)CC2)CC1` [Example 83, N-[(1R,6S)-2,2-difluoro-6-{[1-(propan-2-yl)piperidin-4-yl]oxy}cyclohexyl]-4-{5-[(1S,2S)-2-fluorocyclopropyl]-1,2,4-oxadiazol-3-yl}-4-methylpiperidine-1-carboxamide], the “agonist activity (%)” value was determined as 371%.
For `CC(C)N1CCC(O[C@H]2CCCC(F)(F)[C@@H]2NC(=O)N2CCC(C)(c3noc(C4CC4)n3)CC2)CC1` [Example 84, 4-(5-cyclopropyl-1,2,4-oxadiazol-3-yl)-N-[(1R,6S)-2,2-difluoro-6-{[1-(propan-2-yl)piperidin-4-yl]oxy}cyclohexyl]-4-methylpiperidine-1-carboxamide], the “agonist activity (%)” value is 372%.
On to `CC(C)c1nc([C@H]2CCCC(F)(F)[C@@H]2NC(=O)N2CCC(C)(c3noc(C4CC4)n3)CC2)no1` [Example 85, 4-(5-cyclopropyl-1,2,4-oxadiazol-3-yl)-N-{(1R,6S)-2,2-difluoro-6-[5-(propan-2-yl)-1,2,4-oxadiazol-3-yl]cyclohexyl}-4-methylpiperidine-1-carboxamide], for which the “agonist activity (%)” value stood at 360%.
Turning to `CC(C)c1nc([C@H]2CCCC(F)(F)[C@@H]2NC(=O)N2CCC(C)(c3noc([C@@H]4C[C@@H]4F)n3)CC2)no1` [Example 86, N-{(1R,6S)-2,2-difluoro-6-[5-(propan-2-yl)-1,2,4-oxadiazol-3-yl]cyclohexyl}-4-{5-[(1S,2S)-2-fluorocyclopropyl]-1,2,4-oxadiazol-3-yl}-4-methylpiperidine-1-carboxamide], the “agonist activity (%)” value turned out to be 367%.
As for `CC(C)c1nsc(O[C@H]2CCCC(F)(F)[C@@H]2NC(=O)N2CCC(C)(c3noc([C@@H]4C[C@@H]4F)n3)CC2)n1` [Example 87, N-[(1R,6S)-2,2-difluoro-6-{[3-(propan-2-yl)-1,2,4-thiadiazol-5-yl]oxy}cyclohexyl]-4-{5-[(1S,2S)-2-fluorocyclopropyl]-1,2,4-oxadiazol-3-yl}-4-methylpiperidine-1-carboxamide], the “agonist activity (%)” value turned out to be 226%.
Next, `CC(C)n1cc(O[C@H]2CCCC(F)(F)[C@@H]2NC(=O)N2CCC(C)(c3noc([C@@H]4C[C@@H]4F)n3)CC2)cn1` [Example 88, N-[(1R,6S)-2,2-difluoro-6-{[1-(propan-2-yl)-1H-pyrazol-4-yl]oxy}cyclohexyl]-4-{5-[(1S,2S)-2-fluorocyclopropyl]-1,2,4-oxadiazol-3-yl}-4-methylpiperidine-1-carboxamide]: 201%.
On to `CC(C)N1CC(O[C@H]2CCCC(F)(F)[C@@H]2NC(=O)N2CCC(C)(c3noc([C@@H]4C[C@@H]4F)n3)CC2)C1` [Example 89, N-[(1R,6S)-2,2-difluoro-6-{[1-(propan-2-yl)azetidin-3-yl]oxy}cyclohexyl]-4-{5-[(1S,2S)-2-fluorocyclopropyl]-1,2,4-oxadiazol-3-yl}-4-methylpiperidine-1-carboxamide], for which the “agonist activity (%)” value is 0%.
Turning to `CC(C)n1cc(O[C@H]2CCCC(F)(F)[C@@H]2NC(=O)N2CCC(C)(c3noc(C4CC4)n3)CC2)cn1` [Example 90, 4-(5-cyclopropyl-1,2,4-oxadiazol-3-yl)-N-[(1R,6S)-2,2-difluoro-6-{[1-(propan-2-yl)-1H-pyrazol-4-yl]oxy}cyclohexyl]-4-methylpiperidine-1-carboxamide], the “agonist activity (%)” value was found to be 112%.
Next, `CC(C)N1CC[C@H](N(Cc2ccccc2)[C@H]2CCCC(F)(F)[C@@H]2NC(=O)N2CCC(C)(c3noc([C@@H]4C[C@@H]4F)n3)CC2)C1` [Example 91, N-[(1R,6S)-6-{benzyl[(3S)-1-(propan-2-yl)pyrrolidin-3-yl]amino}-2,2-difluorocyclohexyl]-4-{5-[(1S,2S)-2-fluorocyclopropyl]-1,2,4-oxadiazol-3-yl}-4-methylpiperidine-1-carboxamide]: 243%; `CC(C)c1nccc(O[C@H]2CCCC(F)(F)[C@@H]2NC(=O)N2CCC(C)(c3noc([C@@H]4C[C@@H]4F)n3)CC2)n1` [Example 92, N-[(1R,6S)-2,2-difluoro-6-{[2-(propan-2-yl)pyrimidin-4-yl]oxy}cyclohexyl]-4-{5-[(1S,2S)-2-fluorocyclopropyl]-1,2,4-oxadiazol-3-yl}-4-methylpiperidine-1-carboxamide]: 16%.
For the molecule `CC(C)c1cn([C@H]2CCCC(F)(F)[C@@H]2NC(=O)N2CCC(C)(c3noc([C@@H]4C[C@@H]4F)n3)CC2)nn1` [Example 93, N-{(1R,6S)-2,2-difluoro-6-[4-(propan-2-yl)-1H-1,2,3-triazol-1-yl]cyclohexyl}-4-{5-[(1S,2S)-2-fluorocyclopropyl]-1,2,4-oxadiazol-3-yl}-4-methylpiperidine-1-carboxamide], the “agonist activity (%)” value worked out at 365%.
Next, `CC(C)Cc1cn([C@H]2CCCC(F)(F)[C@@H]2NC(=O)N2CCC(C)(c3noc([C@@H]4C[C@@H]4F)n3)CC2)nn1` [Example 94, N-{(1R,6S)-2,2-difluoro-6-[4-(2-methylpropyl)-1H-1,2,3-triazol-1-yl]cyclohexyl}-4-{5-[(1S,2S)-2-fluorocyclopropyl]-1,2,4-oxadiazol-3-yl}-4-methylpiperidine-1-carboxamide]: 382%; `CC(C)N1CC[C@H](N(C)[C@H]2CCCC(F)(F)[C@@H]2NC(=O)N2CCC(C)(c3noc([C@@H]4C[C@@H]4F)n3)CC2)C1` [Example 95, N-[(1R,6S)-2,2-difluoro-6-{methyl[(3S)-1-(propan-2-yl)pyrrolidin-3-yl]amino}cyclohexyl]-4-{5-[(1S,2S)-2-fluorocyclopropyl]-1,2,4-oxadiazol-3-yl}-4-methylpiperidine-1-carboxamide]: 447%.
Next, `CC(C)N(C)[C@H]1CCN([C@H]2CCCC(F)(F)[C@@H]2NC(=O)N2CCC(C)(c3noc([C@@H]4C[C@@H]4F)n3)CC2)C1` [Example 96, N-[(1R,6S)-2,2-difluoro-6-{(3S)-3-[methyl(propan-2-yl)amino]pyrrolidin-1-yl}cyclohexyl]-4-{5-[(1S,2S)-2-fluorocyclopropyl]-1,2,4-oxadiazol-3-yl}-4-methylpiperidine-1-carboxamide]: 493%.
